The text below walks through data of US4952591A, “Anti-ulcer urea derivatives” (Kyorin Pharmaceutical Co., Ltd., priority 1987, dated 1990).

Test [1] concerns 0.6 N HCl-induced gastric lesions. The test can be described thus: Gastric cytoprotection (0.6 N HCl-induced gastric lesions). Conditions: p.o., an hour before 0.6 N HCl, lesion length. Type of test: in vivo, Male Donryu rats. The protocol: Male Donryu rats, weighing about 200 g, were deprived of food and water for 24 hours. One ml of 0.6N HCl solution was given orally and the animals were killed an hour later. […] The length (mm) of each gastric lesion was measured under a dissecting microscope, summed, and used as an index for evaluation. Drugs were orally given an hour before 0.6 N HCl solution treatment.

Test [2] has as its system Gastric secretion (acid output). In words: Gastric antisecretion (Acute fistula method, histamine-stimulated, pylorus-ligated rats). Type of test: in vivo, Male Donryu rats. As to conditions: i.d., histamine 10 mg/kg i.m. As to the method:
Male Donryu rats, weighing about 200 g, were fasted for 24 hours before the experiment. […] The gastric cannula was implanted in the forestomach (Acute fistula method). Gastric secretion from cannula was collected into test tubes every one hour and the acid output was titrated. Histamine (10 mg/kg) was intramuscularly given after the first collection of gastric juice. Drugs were intraduodenally given after the second collection of the gastric juice.

The target of another test is T1, Histamine H2-receptor (Cavia porcellus, UniProt P47747).
T1 construct: The right atrium was dissected and suspended at 0.5 g tension in a 10 ml organ bath; from tissue; host or cells: isolated right atrium of male Hartley guinea-pigs
T1 sequence (P47747 whole entry): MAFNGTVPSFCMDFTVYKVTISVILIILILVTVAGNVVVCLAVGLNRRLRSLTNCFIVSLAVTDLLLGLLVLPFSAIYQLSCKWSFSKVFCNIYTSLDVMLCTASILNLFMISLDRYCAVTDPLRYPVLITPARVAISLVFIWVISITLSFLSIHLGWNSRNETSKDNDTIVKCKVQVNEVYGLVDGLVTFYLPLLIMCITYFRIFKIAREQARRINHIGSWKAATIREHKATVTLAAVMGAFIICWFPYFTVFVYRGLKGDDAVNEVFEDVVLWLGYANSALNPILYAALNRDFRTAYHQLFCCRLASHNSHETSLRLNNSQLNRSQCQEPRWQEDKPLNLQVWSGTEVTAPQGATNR
The test can be described thus: Histamine H2-receptor antagonism (isolated right atrium, positive chronotropic effect of histamine). Set-up: species or system Male Hartley guinea-pigs. Conditions: guinea-pig right atrium, 32±1° C., drugs added 5 minutes before histamine; read-out: pA2 (converted). The protocol: Male Hartley guinea-pigs, weighing between 300 and 400 g, were used in the experiment. The right atrium was dissected and suspended at 0.5 g tension in a 10 ml organ bath containing Krebs-Henseleit's solution, kept at 32±1° C. and bubbled with the gas mixture (95 % O2 and 5 % CO2). Contractions were recorded with a force-displacement transducer through a strain gange. […] Drugs were added into the organ bath 5 minutes before histamine treatment.

As to `CCNC(=O)NCCCOc1cccc(CN2CCCCC2)c1` [Example 16, N-Ethyl-N'-[3-(3-piperidinomethylphenoxy)propyl]urea], the “Inhibition (%)” value is on record as 52.6% in test [1] (Dose 6 mg/kg); 78.0% in test [1] (Dose 25 mg/kg); 89.4% in test [1] (Dose 50 mg/kg); 49.5% in test [2] (Dose 5 mg/kg); 77.2% in test [2] (Dose 10 mg/kg). For the same compound, on Histamine H2-receptor, the Kb was 0.0661 µM.

`COc1ccc(NC(=O)NCCCOc2cccc(CN3CCCCC3)c2)cc1` [Example 1, N-(4-Methoxyphenyl)-N'-[3-(3-piperidinomethylphenoxy)propyl]urea]: the “Inhibition (%)” value in test [1] (Dose 25 mg/kg) was 30.1%; in test [1] (Dose 50 mg/kg), 45.1%; in test [1] (Dose 100 mg/kg), 67.4%; in test [2] (Dose 12.5 mg/kg), 70.7%; in test [2] (Dose 25 mg/kg), 98.5%. Besides, the Kb on Histamine H2-receptor was 0.263 µM.

For the compound `CCCNC(=O)NCCCOc1cccc(CN2CCCCC2)c1` [Example 8], the “Inhibition (%)” value is 26.4% in test [1] (Dose 1 mg/kg); 55.4% in test [1] (Dose 6 mg/kg); 67.4% in test [1] (Dose 16 mg/kg); 49.5% in test [2] (Dose 1 mg/kg); 77.5% in test [2] (Dose 3 mg/kg); 81.3% in test [2] (Dose 6 mg/kg). Also, the Kb at Histamine H2-receptor was 0.0417 µM.

For the compound `CCOc1ccc(NC(=O)NCCCOc2cccc(CN3CCCCC3)c2)cc1` [Example 51, N-(4-Ethoxyphenyl)-N'-[3-(3-piperidinomethylphenoxy)propyl]urea], the “Inhibition (%)” value in test [1] (Dose 50 mg/kg) was 63.4%; in test [2] (Dose 1 mg/kg), 29.0%; in test [2] (Dose 6 mg/kg), 52.7%; in test [2] (Dose 25 mg/kg), 97.1%. The Kb at Histamine H2-receptor was 0.251 µM.

`CC(C)NC(=O)NCCCOc1cccc(CN2CCCCC2)c1` [Example 54]: the “Inhibition (%)” value turned out to be 36.1% in test [1] (Dose 6 mg/kg); 73.0% in test [1] (Dose 25 mg/kg); 70.1% in test [1] (Dose 50 mg/kg); 16.1% in test [2] (Dose 2 mg/kg); 68.2% in test [2] (Dose 5 mg/kg); 78.8% in test [2] (Dose 10 mg/kg). Moreover, the Kb on Histamine H2-receptor is 0.0275 µM.

`CNC(=O)NC/C=C\COc1cccc(CN2CCCCC2)c1` [Example 29]: the “Inhibition (%)” value in test [1] (Dose 5 mg/kg) is listed as 49.3%; in test [1] (Dose 25 mg/kg), 73.8%; in test [2] (Dose 3 mg/kg), 39.1%; in test [2] (Dose 5 mg/kg) it was 80.8%. Also, the Kb at Histamine H2-receptor is 0.0355 µM.

For the compound `CN/C(=N/CCSCc1nc[nH]c1C)NC#N` [Cimetidine, reference compound], the “Inhibition (%)” value in test [1] (Dose 100 mg/kg) is on record as 22.0%; in test [2] (Dose 12.5 mg/kg), 51.9%; in test [2] (Dose 25 mg/kg), 80.0%; in test [2] (Dose 50 mg/kg), 100.0%.
